“Also recorded” adds a separate entry of the source. Where a SMILES comes first, the peptide text is derived from it.
Molecular target: T1, NEP (Rattus norvegicus, UniProt P07861)
T1 construct: incubations of membrane and fresh tissue slice preparations from nervous tissues; from tissue; host or cells: dorsal spinal cord of male Wistar rats (fresh slices or 100 000 x g membrane fraction)
T1 sequence (P07861 1-750): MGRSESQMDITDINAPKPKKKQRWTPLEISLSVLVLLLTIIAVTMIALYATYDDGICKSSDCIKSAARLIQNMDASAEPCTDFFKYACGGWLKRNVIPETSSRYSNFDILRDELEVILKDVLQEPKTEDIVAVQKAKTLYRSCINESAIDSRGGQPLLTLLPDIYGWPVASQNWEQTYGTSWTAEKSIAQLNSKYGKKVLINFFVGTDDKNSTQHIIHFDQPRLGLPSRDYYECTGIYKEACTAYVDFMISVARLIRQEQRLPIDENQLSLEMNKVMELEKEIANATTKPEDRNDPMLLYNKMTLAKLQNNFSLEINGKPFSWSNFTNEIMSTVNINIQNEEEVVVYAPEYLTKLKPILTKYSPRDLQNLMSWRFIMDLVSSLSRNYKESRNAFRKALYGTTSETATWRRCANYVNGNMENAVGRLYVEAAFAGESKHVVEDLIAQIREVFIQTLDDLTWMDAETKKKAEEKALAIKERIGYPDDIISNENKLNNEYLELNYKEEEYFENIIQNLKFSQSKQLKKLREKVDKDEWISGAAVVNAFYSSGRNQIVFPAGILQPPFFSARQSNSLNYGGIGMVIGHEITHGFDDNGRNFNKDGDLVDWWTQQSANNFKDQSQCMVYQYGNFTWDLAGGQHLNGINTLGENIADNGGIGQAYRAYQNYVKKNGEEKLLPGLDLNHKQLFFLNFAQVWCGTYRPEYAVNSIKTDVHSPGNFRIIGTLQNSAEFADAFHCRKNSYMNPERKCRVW
Assay: 3H-Substance P hydrolysis by rat spinal cord membrane preparations
Assay type: biochemical
Method: FIG. 1-A: Influence of spinal cord membrane protein concentration on Substance P hydrolysis (25 nM) in the presence or absence of the synthetic NEP inhibitor, Phosphoramidon, 10 μM. Each point represents the percent of 3H-substance P hydrolyzed by spinal cord membrane incubated 15 min. at 30° C. in a 250 μl final volume of Tris/HCl buffer. […] Each point represents the percent of 3H-substance P hydrolyzed by 250 μg membrane proteins incubated at 25° C. in a 250 μl final volume of Tris/HCl buffer. FIG. 3-B: Concentration-dependent inhibition by […] NO: 2) of 3H-Substance P (12.5 nM) catabolism by rat spinal cord membrane preparations. Comparison with-a NEP inhibitor, Phosphoramidon and, -CPB and DPPIV inhibitors, […] inhibitor. Comparison between the inhibitory activity exerted by […] NO: 2) peptide alone or in combination with CPB and DPPIV inhibitors. […] The metabolism rate of the NEP-sensitive peptides was measured using the both NEP substrates involved in the signaling of the nociceptive response: the neuropeptides Met-enkephalin and Substance P. […] The temperature and the time of the incubation as well as the concentration of substrate and of membrane enzyme are defined according to the results such as the NEP hydrolysis activity will be measured under conditions of initial velocity. […] The radioactivity of eluted and isolated compounds is determined by liquid scintillation spectrometry.

## N=C(N)NCCC[C@H](NC(=O)[C@@H]1CCCN1C(=O)[C@H](CC(N)=O)NC(=O)[C@H](Cc1c[nH]cn1)NC(=O)[C@@H](N)CCC(N)=O)C(=O)O [sialorphin, Gln-His-Asn-Pro-Arg] (H-QHNPR-OH; N-terminus and C-terminus assumed)
Peptide alone, listed as SMR1-QHNPR
  inhibitory potency / protection of Substance P compared with reference NEP inhibitors: equivalent t0 that obtained with Phosphoramidon; also recorded: equivalent to that of two well-known NEP-specific inhibitors, Thiorphan and Phosphoramidon
Peptide combined with the inhibitors of CPB and DPPIV
  NEP inhibiting activity compared with phosphoramidon: greater than that of phosphoramidon

From patent publication US7625713B2, “Process for identifying a ligand that binds to the NEP binding site for the SMR1 pentapeptide” (Institut Pasteur, priority 2000, dated 2009)
